Test results from patent USRE49361E1, “Fused bicyclic (hetero)aromatic compounds useful for the treatment of cancers” (JAZZ PHARMACEUTICALS IRELAND LIMITED, priority 2014, dated 2023).

Tested on: C-RAF-mediated ERK activation in B-RAF^WT IPC-298 cells (NRAS^Q61L)
Experiment: IPC-298 AlphaScreen SureFire pERK1/2 cellular assay
Type: cell-based, human
Conditions: 1 hour treatment, in comparison to Dabrafenib
Description: On day 2, compounds at a concentration of 6 mM are serially diluted 5 μl into 45 μl of 100% dimethyl sulfoxide (DMSO) six times in 96-well plates for a total of 7 dilution points. […] The cells are treated for 1 hour at 37° C. in 5% CO2. The treatment is then removed and the cells are incubated with lysis buffer containing phosphatase inhibitors for 10 minutes at room temperature with gentle shaking. […] The biotinylated antibody binds to the streptavidin-coated donor beads and the phopsho-ERK1/2 antibody binds to the acceptor beads. Plates are read on an EnVision reader (Perkin Elmer) and excitation of the beads at 680 nm with a laser induces the release of singlet oxygen molecules from the donor beads that triggers energy transfer to the acceptor beads in close proximity, producing a signal that can be measured at 570 nm. Both antibodies bind to phosphorylated ERK proteins, bringing the donor and acceptor beads into close proximity.
All data are analysed using the GraphPad Prism software package. Activation of ERK phosphorylation is expressed as a percentage of activation relative to the reference compound, Dabrafenib.

Compound | paradoxical activation of MAPK pathway (ERK phosphorylation) relative to Dabrafenib
O=C1CCc2c(Oc3ccc4c(c3)CC(c3nc(-c5ccncc5)c[nH]3)CO4)ccnc2N1 (stereo not drawn) [Example 4, 5-[3-[4-(4-pyridyl)-1H-imidazol-2-yl]chroman-6-yl]oxy-3,4-dihydro-1H-1,8-naphthyridin-2-one] | reduced paradoxical activity
O=C1CCc2c(Oc3ccc4c(c3)CC(c3nc(-c5ccsc5)c[nH]3)CO4)ccnc2N1 (stereo not drawn) [Example 6, 5-[3-[4-(3-thienyl)-1H-imidazol-2-yl]chroman-6-yl]oxy-3,4-dihydro-1H-1,8-naphthyridin-2-one] | reduced paradoxical activity
O=C1CCc2c(Oc3ccc4c(c3)CC(c3nc(-c5cccs5)c[nH]3)CO4)ccnc2N1 (stereo not drawn) [Example 7, 5-[3-[4-(2-thienyl)-1H-imidazol-2-yl]chroman-6-yl]oxy-3,4-dihydro-1H-1,8-naphthyridin-2-one] | reduced paradoxical activity
O=C1CCc2c(Oc3ccc4c(c3)CC(c3cc(-c5ccccc5)[nH]n3)CO4)ccnc2N1 (stereo not drawn) [Example 18, 5-[3-(5-phenyl-1H-pyrazol-3-yl)chroman-6-yl]oxy-3,4-dihydro-1H-1,8-naphthyridin-2-one] | reduced paradoxical activity
O=C1CCc2c(Oc3ccc4c(c3)O[C@@H](c3nc(-c5ccccc5)c[nH]3)CO4)ccnc2N1 [Example 19, 5-[[(3S)-3-(4-phenyl-1H-imidazol-2-yl)-2,3-dihydro-1,4-benzodioxin-6-yl]oxy]-3,4-dihydro-1H-1,8-naphthyridin-2-one] | reduced paradoxical activity
O=C1CCc2c(Oc3ccc4c(c3)O[C@H](c3nc(-c5ccccc5)c[nH]3)CO4)ccnc2N1 [Example 20, 5-[[(3R)-3-(4-phenyl-1H-imidazol-2-yl)-2,3-dihydro-1,4-benzodioxin-6-yl]oxy]-3,4-dihydro-1H-1,8-naphthyridin-2-one] | reduced paradoxical activity
